In patent US11365192B2, “Pyridine compound substituted with azole” (TAISHO PHARMACEUTICAL CO., LTD., priority 2017, dated 2022) one finds IC50 data, which are given here for 45 molecules.

The target of one assay is human CYP4A11 (Homo sapiens (Human), UniProt Q02928). Kind of assay: Inhibition test against 20-HETE producing enzyme CYP4A11 (luciferine derivative, luminescence). The assay is classed as biochemical. In outline:
(§1)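 IC50 derived from luminescence after 60 min at room temperature with membrane fractions of E. coli expressing each human CYP (100 μg/mL protein). For CYP4A11, 60 μM luciferin derivative in 100 mM Tris-HCl pH 7.5 with NADPH-regenerating system; for CYP4F2, 2.5 μM substrate, 1 mM NADPH, 50 mM KPO4 pH 7.4.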

For another assay, the target named is human CYP4F2 (Homo sapiens (Human), UniProt P78329). Kind of assay: Inhibition test against 20-HETE producing enzyme CYP4F2 (luciferine derivative, luminescence). The assay is classed as biochemical. In outline:
as §1

Where [1] appears, read: E. coli membrane fraction expressing human CYP4A11, 60 μM luciferine derivative, room temperature 60 minutes.
The mark [2] stands for this setting: E. coli membrane fraction expressing human CYP4F2, 2.5 μM luciferine derivative, room temperature 60 minutes.
Where [3] appears, read: human CYP4A11, luciferine derivative, luminescence.
The mark [4] stands for this setting: human CYP4F2, luciferine derivative, luminescence.

SMILES strings stand for the structures.

human CYP4F2, sequence (P78329 5-520): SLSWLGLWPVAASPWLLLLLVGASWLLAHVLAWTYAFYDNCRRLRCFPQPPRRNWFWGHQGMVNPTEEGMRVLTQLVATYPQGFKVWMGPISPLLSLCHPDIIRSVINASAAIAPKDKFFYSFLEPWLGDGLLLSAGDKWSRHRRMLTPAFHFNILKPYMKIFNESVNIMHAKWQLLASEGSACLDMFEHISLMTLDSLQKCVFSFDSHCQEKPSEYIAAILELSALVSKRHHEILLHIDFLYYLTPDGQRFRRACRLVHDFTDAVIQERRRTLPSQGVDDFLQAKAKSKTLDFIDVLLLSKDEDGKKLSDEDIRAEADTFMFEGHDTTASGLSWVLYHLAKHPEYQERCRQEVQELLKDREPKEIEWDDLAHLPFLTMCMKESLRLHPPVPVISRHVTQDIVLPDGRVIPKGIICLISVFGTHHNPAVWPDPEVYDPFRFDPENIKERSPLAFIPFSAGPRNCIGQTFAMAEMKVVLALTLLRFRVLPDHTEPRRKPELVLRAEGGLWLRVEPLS
human CYP4A11, sequence (Q02928 5-519): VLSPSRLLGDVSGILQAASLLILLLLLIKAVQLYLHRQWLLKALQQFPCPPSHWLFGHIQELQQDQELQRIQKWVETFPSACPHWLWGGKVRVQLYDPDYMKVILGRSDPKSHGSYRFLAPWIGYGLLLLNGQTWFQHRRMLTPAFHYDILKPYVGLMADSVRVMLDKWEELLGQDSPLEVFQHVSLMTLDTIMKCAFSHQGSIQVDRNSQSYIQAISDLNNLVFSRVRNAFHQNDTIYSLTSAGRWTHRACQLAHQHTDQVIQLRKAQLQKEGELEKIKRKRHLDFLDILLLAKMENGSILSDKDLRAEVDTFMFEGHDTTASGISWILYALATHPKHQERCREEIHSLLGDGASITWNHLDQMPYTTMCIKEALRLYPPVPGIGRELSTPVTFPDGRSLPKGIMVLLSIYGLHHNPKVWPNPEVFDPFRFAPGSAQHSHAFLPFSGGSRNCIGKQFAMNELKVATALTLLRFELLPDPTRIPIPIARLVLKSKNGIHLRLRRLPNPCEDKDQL

What is called IC50 is the point on the concentration scale where inhibition reaches its midpoint. Regarding `CC(=O)N1CCC(O)(c2cccc(COc3ccc(-c4ccn[nH]4)nc3)c2)CC1` [Example 52-1, 1-[4-Hydroxy-4-[3-[[6-(1-H-pyrazol-5-yl)-3-pyridinyl]oxymethyl]phenyl]-1-piperidinyl]ethanone], the values for the IC50 against human CYP4A11 (setting [1]) and on human CYP4F2 (setting [2]) were 0.71 µM and 0.0044 µM, respectively.
As for `CN(CCC(C)(C)C(=O)O)C(=O)c1cccc(COc2ccc(-c3ccn[nH]3)nc2)c1` [Example 45-18], the values for the IC50 on human CYP4A11 (setting [3]) and at human CYP4F2 (setting [4]) were 0.44 µM and 0.27 µM, respectively.
On to `O=C(O)[C@]12CC3C[C@H](C1)[C@@H](COc1ccc(-c4ccn[nH]4)nc1)[C@@H](C3)C2` [Example 2-2, cis-4-[[6-(1H-Pyrazol-5-yl)-3-pyridinyl]oxymethyl]-1-adamantanecarboxylic Acid], for which the results for the IC50 against human CYP4A11 (setting [1]) and against human CYP4F2 (setting [2]) were 0.13 µM and above 50 µM, respectively.
As to `NS(=O)(=O)CCCC(=O)N1CCC[C@@H](COc2ccc(-c3ccn[nH]3)nc2)C1` [Example 41-6], the IC50 against human CYP4A11 (setting [1]) amounted to 0.44 µM; on human CYP4F2 (setting [2]) it was 0.32 µM.
The corresponding values for `O=C(O)Cc1cccc(CCOc2ccc(-c3ccn[nH]3)nc2)c1` [Example 1-14] are 0.021 µM and 7.8 µM.
The corresponding values for `O=C(O)C1CC(CCOc2ccc(-c3ccn[nH]3)nc2)C1` (stereo not drawn) [Example 1-26] are 0.043 µM and 14 µM.
As to `O=C(O)c1ccc(COc2ccc(-c3ccn[nH]3)nc2)cc1F` [Example 22-18], the IC50 worked out at 0.035 µM at human CYP4A11 (setting [1]) and 18 µM against human CYP4F2 (setting [2]).
The corresponding values for `O=C(O)c1ccc(COc2ccc(-c3ccn[nH]3)nc2)cc1` [Example 1-1, 4-[[6-(1H-Pyrazol-5-yl)-3-pyridinyl]oxymethyl]benzoic Acid] are 0.037 µM and 15 µM.
The matching figures for `COC(=O)N1CCC(O)(c2cccc(COc3ccc(-c4ccn[nH]4)nc3)c2)CC1` [Example 51-1, Methyl 4-hydroxy-4-[3-[[6-(1-H-pyrazol-5-yl)-3-pyridinyl]oxymethyl]phenyl]-1-piperidinecarboxylate]: 0.27 µM and 0.003 µM.
The matching figures for `CC(C)(OCCOCCCCOc1ccc(-c2ccn[nH]2)nc1)C(=O)O` [Example 1-67]: 0.12 µM and 10 µM.
For the molecule `CN(C)C(=O)[C@H]1C[C@](O)(c2cc(COc3ccc(-c4ccn[nH]4)nc3)ccc2F)C1` [Example 42-22], the half-inhibitory concentration (IC50) was 0.27 µM against human CYP4A11 (setting [3]) and 0.099 µM against human CYP4F2 (setting [4]).
With `O=C(O)c1cccc(CC(=O)N2CCC[C@@H](COc3ccc(-c4ccn[nH]4)nc3)C2)c1` [Example 46-5], the IC50 is 0.28 µM against human CYP4A11 (setting [1]) and 7.5 µM on human CYP4F2 (setting [2]).
The corresponding values for `O=C(O)CCCc1ccc(CCOc2ccc(-c3ccn[nH]3)nc2)cc1` [Example 4-2] are 0.25 µM and 0.16 µM.
The matching figures for `O=C(O)c1ccc2c(c1)C(CCOc1ccc(-c3ccn[nH]3)nc1)CCC2` (stereo not drawn) [Example 5-2]: 0.073 µM and 1.7 µM.
The corresponding values for `COc1ccc(COc2ccc(-c3ccn[nH]3)nc2)cc1C(=O)O` [Example 1-65, 2-Methoxy-5-[[6-(1H-pyrazol-5-yl)-3-pyridinyl]oxymethyl]benzoic Acid] are 1.2 µM and 24 µM.
Take `CC(C)(O)CS(=O)(=O)c1cccc(COc2ccc(-c3ccn[nH]3)nc2)c1` [Example 36-1, 2-Methyl-1-[3-[[6-(1-H-pyrazol-5-yl)-3-pyridinyl]oxymethyl]phenyl] sulfonyl-2-propanol]: the IC50 at human CYP4A11 (setting [1]) was found to be 0.082 µM; on human CYP4F2 (setting [2]), 0.093 µM.
On to `O=C(CCc1cccc(COc2cnc(-c3ccn[nH]3)c(F)c2)c1)NC1COC1` [Example 42-20], for which the IC50 at human CYP4A11 (setting [3]) turned out to be 0.076 µM; against human CYP4F2 (setting [4]), 0.011 µM.
The corresponding values for `O=C(O)C1(Cc2cccc(CCOc3ccc(-c4ccn[nH]4)nc3)c2F)COC1` [Example 71-27] are 0.094 µM and 15 µM.
On to `C[C@@H](O)CNC(=O)CCc1cccc(COc2ccc(-c3ccn[nH]3)nc2)c1` [Example 43-6], for which the IC50 against human CYP4A11 (setting [3]) is 0.056 µM; at human CYP4F2 (setting [4]), 0.092 µM.
Consider `O=C(O)c1cccc(CCCOc2ccc(-c3ccn[nH]3)nc2)c1` [Example 1-9], for which the figures for the concentration for half-maximal inhibition (IC50) against human CYP4A11 (setting [1]) and against human CYP4F2 (setting [2]) were 0.079 µM and 0.48 µM, respectively.
The corresponding values for `CC(C)(Oc1cccc(CCCCOc2ccc(-c3ccn[nH]3)nc2)c1)C(=O)O` [Example 1-36] are 0.11 µM and 1.3 µM.
As for `O=C(O)C1CC1c1cccc(CCOc2ccc(-c3ccn[nH]3)nc2)c1F` (stereo not drawn) [Example 74-3], the IC50 came to 0.088 µM against human CYP4A11 (setting [3]) and 0.06 µM against human CYP4F2 (setting [4]).
On to `O=C(O)CCNC(=O)c1cccc(COc2ccc(-c3ccn[nH]3)nc2)c1` [Example 45-1, 3-[[Oxo-[3-[[6-(1H-pyrazol-5-yl)-3-pyridinyl]oxymethyl]phenyl]methyl]amino]propanoic Acid], for which the IC50 was 0.12 µM against human CYP4A11 (setting [3]) and 7.6 µM against human CYP4F2 (setting [4]).
For `O=C(O)[C@H]1CCC[C@H](COc2ccc(-c3ccn[nH]3)nc2)C1` (racemic) [Example 9-1, trans-3-[[6-(1H-Pyrazol-5-yl)-3-pyridinyl]oxymethyl]-1-cyclohexanecarboxylic Acid (Racemate)], the IC50 against human CYP4A11 (setting [1]) turned out to be 0.051 µM; against human CYP4F2 (setting [2]), 1.9 µM.
Consider `CN(CC(C)(C)C(=O)O)S(=O)(=O)c1cccc(COc2ccc(-c3ccn[nH]3)nc2)c1` [Example 75-2], for which the half-inhibitory concentration (IC50) on human CYP4A11 (setting [3]) amounted to 0.038 µM; on human CYP4F2 (setting [4]), 0.13 µM.
Take `O=C(O)Cn1cc(-c2cccc(COc3ccc(-c4ccn[nH]4)nc3)c2)ccc1=O` [Example 1-25]: the IC50 amounted to 0.12 µM at human CYP4A11 (setting [1]) and 1.6 µM against human CYP4F2 (setting [2]).
Regarding `O=C(O)C1(Cc2ccc(CCOc3ccc(-c4ccn[nH]4)nc3)cc2)CC1` [Example 74-1], the values for the IC50 at human CYP4A11 (setting [3]) and at human CYP4F2 (setting [4]) were 0.13 µM and 1.1 µM, respectively.
The corresponding values for `O=C(O)C[C@@H]1CCN(C(=O)c2cccc(COc3ccc(-c4ccn[nH]4)nc3)c2)C1` [Example 45-40] are 0.41 µM and 1.4 µM.
Consider `OC(Cc1cccc(COc2ccc(-c3ccn[nH]3)nc2)c1)C(F)(F)F` (stereo not drawn) [Example 59-1, 1,1,1-Trifluoro-3-[3-[[6-(1H-pyrazol-5-yl)-3-pyridinyl]oxymethyl]phenyl]-2-propanol], for which the IC50 against human CYP4A11 (setting [1]) is 0.13 µM; against human CYP4F2 (setting [2]), 0.01 µM.
As for `O=C(O)C1CC1c1ccc(F)c(CCOc2ccc(-c3ccn[nH]3)nc2)c1` (stereo not drawn) [Example 74-6], the IC50 was determined as 0.035 µM against human CYP4A11 (setting [3]) and 16 µM on human CYP4F2 (setting [4]).
On to `O=S(=O)(NCCc1c[nH]c2ccccc12)c1ccc(COc2ccc(-c3ccn[nH]3)nc2)cc1` [Example 23-3], for which the figures for the IC50 against human CYP4A11 (setting [1]) and at human CYP4F2 (setting [2]) were 1.7 µM and 0.049 µM, respectively.
As to `O=C(CCc1cccc(COc2ccc(-c3ccn[nH]3)nc2)c1)NC[C@H]1CCCO1` [Example 43-13], the IC50 at human CYP4A11 (setting [3]) amounted to 0.048 µM; against human CYP4F2 (setting [4]), 0.021 µM.
`O=C1NC(=O)C(CCCCOc2ccc(-c3ccn[nH]3)nc2)O1` (stereo not drawn) [Example 63-1, 5-[4-[[6-(1H-Pyrazol-5-yl)-3-pyridinyl]oxy]butyl]oxazolidine-2,4-dione]: the figures for the IC50 against human CYP4A11 (setting [1]) and at human CYP4F2 (setting [2]) were 0.031 µM and 12 µM, respectively.
On to `O=C(O)[C@@H]1CCCN1C(=O)c1cccc(COc2ccc(-c3ccn[nH]3)nc2)c1` [Example 45-34], for which the values for the IC50 against human CYP4A11 (setting [3]) and against human CYP4F2 (setting [4]) were 0.22 µM and 17 µM, respectively.
Turning to `O=C(O)c1ccc(CCCCOc2ccc(-c3ccn[nH]3)nc2)cn1` [Example 29-4], the IC50 against human CYP4A11 (setting [1]) worked out at 0.042 µM; against human CYP4F2 (setting [2]), 0.24 µM.
With `O=C(O)c1cc2n(n1)CCN(C(=O)c1cccc(COc3ccc(-c4ccn[nH]4)nc3)c1)C2` [Example 45-45], the IC50 was determined as 1.7 µM at human CYP4A11 (setting [3]) and 1.6 µM at human CYP4F2 (setting [4]).
The corresponding values for `O=C(N[C@H]1CC[C@H](C(=O)O)CC1)c1cccc(COc2ccc(-c3ccn[nH]3)nc2)c1` [Example 45-20] are 0.41 µM and 2.1 µM.
Turning to `CC(C)(CCCCOc1ccc(-c2ccn[nH]2)nc1)C(=O)O` [Example 1-59], the IC50 came out at 0.042 µM at human CYP4A11 (setting [1]) and 17 µM on human CYP4F2 (setting [2]).
The corresponding values for `CC(C)(Oc1cccc(COc2ccc(-c3ccn[nH]3)nc2)c1)C(=O)O` [Example 18-5] are 0.032 µM and 5.2 µM.
The corresponding values for `CCCNC(=O)CCc1cccc(COc2ccc(-c3ccn[nH]3)nc2)c1` [Example 42-10] are 0.046 µM and 0.015 µM.
Turning to `CN(C(=O)CCc1cccc(COc2ccc(-c3ccn[nH]3)nc2)c1)S(C)(=O)=O` [Example 44-6], the IC50 against human CYP4A11 (setting [3]) amounted to 0.23 µM; on human CYP4F2 (setting [4]) it was 0.045 µM.
For `O=C(O)C1CC1c1cccc(COc2ccc(-c3ccn[nH]3)nc2)c1` (single isomer, unassigned) [Example 26-1, trans-2-[3-[[6-(1H-Pyrazol-5-yl)-3-pyridinyl]oxymethyl]phenyl]-1-cyclopropanecarboxylic Acid], the IC50 at human CYP4A11 (setting [1]) amounted to 0.02 µM; against human CYP4F2 (setting [2]), 0.4 µM.
Regarding `O=C(O)C1CC1c1ccc(CCOc2ccc(-c3ccn[nH]3)nc2)c(F)c1` (single isomer, unassigned) [Example 71-17], the half-inhibitory concentration (IC50) stood at 0.25 µM against human CYP4A11 (setting [3]) and 0.52 µM on human CYP4F2 (setting [4]).
For the molecule `CN(CC12CC(COc3ccc(-c4ccn[nH]4)nc3)(C1)C2)S(C)(=O)=O` [Example 58-2, N-Methyl-N-[[3-[[6-(1H-pyrazol-5-yl)-3-pyridinyl]oxymethyl]-1-bicyclo[1.1.1]pentanyl]methyl]methanesulfonamide], the IC50 at human CYP4A11 (setting [1]) came to 0.24 µM; on human CYP4F2 (setting [2]), 0.0051 µM.
Take `O=C(O)CCc1cccc(CCCOc2ccc(-c3ccn[nH]3)nc2)c1` [Example 30-3, 3-[3-[3-[[6-(1H-Pyrazol-5-yl)-3-pyridinyl]oxy]propyl]phenyl]propanoic Acid]: the IC50 on human CYP4A11 (setting [1]) is 0.15 µM; on human CYP4F2 (setting [2]), 0.37 µM.
